Values belong to the molecule of their own block, whether it stands above or below them.
Legend:
Type in all cases: physicochemical
[1] = Vapor pressure measurement (annex A4 to 92/69/ECC, OECD 104, EPA OPPTS 830.7950)
Description: (§1) In accordance with DIN 53408, the solution temperatures of N-2-ethylhexylhexahydrophthalimide were measured for PVC. For comparison, the solution temperatures of the known plasticizers di(2-ethylhexyl) phthalate and diisobutyl phthalate were determined. Vapor pressure measurements were carried out in accordance with annex A4 to European Commission specification 92/69/ECC, OECD test specification 104 and, respectively, EPA test specification OPPTS 830.7950. The following table compares the results.

[2] = Solution temperature for PVC in accordance with DIN 53408
Description: A particularly important factor for the use of plasticizers is their gelling performance for PVC. Gelling performance is the capability of a plasticizer to penetrate into the polymeric structure of the PVC and to bring about a plasticizing effect by reducing the level of interaction between the polymer chains. A measure of the gelling performance of a plasticizer is the solution temperature for PVC, determined to DIN 53408. The lower the solution temperature, the better the gelling performance. Better gelling performance or lower solution temperature of the plasticizer means that lower processing temperatures can be selected in the production of flexible PVC. Lower temperatures save energy and time.
as §1

Boiling point = assay: Boiling point

Molecule: CCCCC(CC)COC(=O)c1ccccc1C(=O)OCC(CC)CCCC (stereo not shown) [Di(2-ethylhexyl) phthalate, di(2-ethylhexyl) phthalate]
- Vapor pressure ([1]; 140° C.): 0.04 hPa
- Vapor pressure ([1]; 160° C.): 0.17 hPa
- Vapor pressure ([1]; 180° C.): 0.58 hPa
- Vapor pressure ([1]; 200° C.): 1.80 hPa
- Solution temperature for PVC [2]: 124 °C
- Boiling point (Boiling point): 384 °C

Molecule: CC(C)COC(=O)c1ccccc1C(=O)OCC(C)C [Diisobutyl phthalate, diisobutyl phthalate]
- Vapor pressure ([1]; 140° C.): 1.50 hPa
- Vapor pressure ([1]; 160° C.): 4.20 hPa
- Vapor pressure ([1]; 180° C.): 10.70 hPa
- Vapor pressure ([1]; 200° C.): 24.40 hPa
- Solution temperature for PVC [2]: 99 °C
- Boiling point (Boiling point): 295 °C

- Solution temperature for PVC [2]: 99 °C
Molecule: N-2-ethylhexylhexahydrophthalimide
